Source: US11607404B2, “Combinations of RAD51 and PARP inhibitors” (Cyteir Therapeutics, Inc., priority 2019, dated 2023)

Tests used:
[1] = Human liver microsome stability; type: in vitro ADME; details: percentage of hepatic blood flow
Protocol: The stability of the claimed compounds was determined in the presences of human liver microsomes. The compounds were incubated with the microsomes at 37° C. for 45 minutes. Samples were analyzed using LC-MS/MS. Data analysis included half-life, clearance rate, and the percentage of hepatic blood flow (% QH) for each of the compounds in the different species.

[2] = Pharmacokinetic (PK) study; type: in vivo, Rat; details: po @ 80 mg/kg (30% PEG400, 10% Vitamin E TPGS in water)
Protocol: PK studies in mice were used to determine the fate of the compounds in a whole organism. Rats were treated with the compounds either orally of via IV at the indicated doses and followed for up to 24 hours. Plasma samples were taken at different time points and analyzed by LC-MS.

HBCx1 model = assay: Tumor growth inhibition, subcutaneous engrafted tumor model; type: in vivo, mice; details: HRD Positive, RAD51 High, BRCA WT, PALB2 WT, 67A 80 mg/kg QD, olaparib 100 mg/kg QD, combo both
Protocol: (§1) Immunodeficient mice were subcutaneously engrafted in the rear flank with the tumor cells. The tumors were allowed to grow to a size of about 100 to about 200 mm^3 prior to being randomized and grouped into treatment arms. For models […] through […] the four treatment arms were vehicle, Compound 67A at 80 mg/kg QD, olaparib at 100 mg/kg QD, and Compound 67A+Olaparib at 80 mg/kg QD and 100 mg/kg QD, respectively. For models J000101173 through TM00091 the treatment arms were vehicle, Compound 67A at 40 mg/kg QD, olaparib at 50 mg/kg QD, and Compound 67A+Olaparib at 40 mg/kg QD and 50 mg/kg QD, respectively. The tumors were measured either once weekly or twice weekly.
(§2) Percent Tumor Growth Inhibition (% TGI) was calculated by taking the mean volume of each of the treatment arms, and comparing the treatment arms to the vehicle arms using the following equation

HBCx11 model = assay: as above; type: in vivo, mice; details: HRD Positive, RAD51 High, BRCA1 Mut, PALB2 WT, 67A 80 mg/kg QD, olaparib 100 mg/kg QD, combo both
Protocol: as §1, §2

HBCx27 model = assay: as above; type: in vivo, mice; details: HRD Negative, RAD51 High, BRCA WT, PALB2 WT, 67A 80 mg/kg QD, olaparib 100 mg/kg QD, combo both
Protocol: as §1, §2

TM000113 model = assay: as above; type: in vivo, mice; details: HRD Negative, RAD51 Low, BRCA WT, PALB2 WT, 67A 40 mg/kg QD, olaparib 50 mg/kg QD, combo both
Protocol: as §1, §2

TM00090 model = assay: as above; type: in vivo, mice; details: HRD Positive, RAD51 Low, BRCA1 Meth, BRCA2 Mut, PALB2 WT, 67A 40 mg/kg QD, olaparib 50 mg/kg QD, combo both
Protocol: as §1, §2

TM01079 model = assay: as above; type: in vivo, mice; details: HRD Positive, RAD51 Low, BRCA1 Meth, PALB2 WT, 67A 40 mg/kg QD, olaparib 50 mg/kg QD, combo both
Protocol: as §1, §2

SMILES: CC(C)OC(=O)Nc1ccc(-c2cnc([C@H]3CC[C@H](NC(=O)OC(C)C)CC3)s2)c(S(=O)(=O)NC(C)(C)C)c1 [Compound 67A, trans-isopropylN-[3-(tert-butylsulfamoyl)-4-[2-[4-(isopropoxycarbonylamino)cyclohexyl]thiazol-5-yl]phenyl]carbamate]
- Human Liver Microsome Stability % QH [1]: <20.3%
- F (%) @ 5 mg/kg ([2]; Rat Female): 86.5%
- F (%) @ 5 mg/kg ([2]; Rat Male): 46.9%
- % TGI (HBCx1 model): 28.75%
- % TGI (HBCx11 model): 23.39%
- % TGI (HBCx27 model): 13.14%
- % TGI (TM000113 model): 7.24%
- % TGI (TM00090 model): 51.82%
- % TGI (TM01079 model): 26.73%
